Here are results for seven molecules from patent publication US5110800A, “Derivatives of erythromycylamine” (Eli Lilly and Company, priority 1989, dated 1992).

The test system of test [1] is Staphylococcus aureus X1.1. Briefly: MIC, standard agar-dilution assay. It counts as cell-based. Particulars: for MIC: Staphylococcus aureus, X1.1, read-out: minimal inhibitory concentration (MIC).
The subject of test [2] is Staphylococcus aureus V41. The test is described as follows: MIC, standard agar-dilution assay. It counts as cell-based. Particulars: penicillin-resistant strain, inducibly erythromycin-resistant; for MIC: Staphylococcus aureus, V41, Table V, read-out: minimal inhibitory concentration (MIC). The text has this:
(§1) In addition to excellent in vitro activity against erythromycin-sensitive bacteria, several members of this new series have shown in vitro activity against erythromycin-resistant strains. These include strains which are inducibly-resistant to erythromycin (S. aureus V41 and X400 and S. epidermidis EPI1) and even strains which are constitutively-resistant (S. epidermidis 270).

Test [3] concerns Staphylococcus aureus X400. The test is described as follows: MIC, standard agar-dilution assay. It counts as cell-based. Particulars: methicillin-resistant strain, inducibly erythromycin-resistant; for MIC: Staphylococcus aureus, X400, Table V, read-out: minimal inhibitory concentration (MIC).
From the text: as §1

For test [4], the system named is Staphylococcus epidermidis EPI1. Briefly: MIC, standard agar-dilution assay. The format is cell-based. Particulars: EPI1, read-out: minimal inhibitory concentration (MIC).
From the text: as §1

The test system of test [5] is Staphylococcus epidermidis 222. Briefly: MIC, standard agar-dilution assay. It counts as cell-based. Particulars: for MIC: Staphylococcus epidermidis, 222, read-out: minimal inhibitory concentration (MIC).
Test [6] deals with Streptococcus pyogenes C203. Briefly: MIC, standard agar-dilution assay. It counts as cell-based. Particulars: for MIC: Streptococcus pyogenes, C203, read-out: minimal inhibitory concentration (MIC).
The subject of test [7] is Streptococcus pneumoniae Park I. Briefly: MIC, standard agar-dilution assay. It counts as cell-based. Particulars: for MIC: Streptococcus pneumoniae, read-out: minimal inhibitory concentration (MIC).
In test [8] the test system is Streptococcus sp. group D 2041. Briefly: MIC, standard agar-dilution assay. The format is cell-based. Particulars: for MIC: Streptococcus, read-out: minimal inhibitory concentration (MIC).
Test [9] concerns Haemophilus influenzae C.L. Briefly: MIC, standard agar-dilution assay. It counts as cell-based. Particulars: for MIC: Haemophilus influenzae, read-out: minimal inhibitory concentration (MIC).
In another test the test system is Escherichia coli EC14. The test is described as follows: MIC, standard agar-dilution assay. Particulars: for MIC: Escherichia coli. It counts as cell-based.
Test [10] concerns Klebsiella pneumoniae X68. The test is described as follows: MIC, standard agar-dilution assay. The format is cell-based. Particulars: for MIC: Klebsiella pneumoniae.
In test [11] the test system is Streptococcus sp. group D X66. The test is described as follows: MIC, standard agar-dilution assay. The format is cell-based. Particulars: for MIC: Streptococcus, read-out: minimal inhibitory concentration (MIC).
Test [12] has as its system Staphylococcus epidermidis 270. Briefly: MIC, standard agar-dilution assay. It counts as cell-based. Particulars: Table IV; constitutively erythromycin-resistant.
From the text: as §1

Test [13] has as its system Staphylococcus aureus S13E. The test is described as follows: MIC, standard agar-dilution assay. It counts as cell-based.
Test [14] has as its system Haemophilus influenzae 76. Briefly: MIC, standard agar-dilution assay. It counts as cell-based. Particulars: ampicillin-resistant strain.
The next test concerns Staphylococcus aureus. The test is described as follows: Oral ED50 against experimental infection in mice. The format is in vivo. Particulars: two doses, protects 50% of animals. The procedure:
(§2) The new derivatives of this invention have also shown in vivo antimicrobial activity against experimental bacterial infections. When two doses of test compound were administered to mice in experimental infections, the activity observed was measured as an ED50 value [effective dose in mg/kg to protect 50% of the test animals: see Warren Wick, et al., J. Bacteriol. 81, 233-235 (1961)].

A further test has as its system Streptococcus pneumoniae. Briefly: Oral ED50 against experimental infection in mice. The format is in vivo. Particulars: two doses, protects 50% of animals. Here is the method: as §2
A further test relates to Streptococcus pyogenes. Briefly: Oral ED50 against experimental infection in mice. It counts as in vivo. Particulars: two doses, protects 50% of animals. The procedure: as §2
Setting [15] is: EC14, Table V, agar dilution, read-out: minimal inhibitory concentration (MIC).
Where [16] appears, read: X68, Table V, agar dilution, read-out: minimal inhibitory concentration (MIC).

≈ marks a conversion by molar mass, not a printed value. Where two headings read alike, the source gives them in different places.

Turning to `CC[C@H]1OC(=O)[C@H](C)[C@@H](O[C@H]2C[C@@](C)(OC)[C@@H](O)[C@H](C)O2)[C@H](C)[C@@H](O[C@@H]2O[C@H](C)C[C@H](N(C)C)[C@H]2O)[C@](C)(O)C[C@@H](C)[C@H](N2CCCCC2)[C@H](C)[C@@H](O)[C@]1(C)O` [Compound 72, 9-Deoxo-9-(1-piperidinyl)erythromycin], the MIC in test [1] was 16 µg/mL (≈ 19.9 µM); in [2], > 128 µg/mL; in [3], > 128 µg/mL; in test [4] it was > 128 µg/mL; in [5], 8 µg/mL (≈ 9.96 µM); in [6] it was 1 µg/mL (≈ 1.25 µM). For the same molecule, the MIC in test [7] is 1 µg/mL (≈ 1.25 µM); in test [8], 128 µg/mL (≈ 159 µM); in [9] it was 2 µg/mL (≈ 2.49 µM); with Escherichia coli EC14 (setting [15]) it was > 128 µg/mL; in test [10] (setting [16]), > 128 µg/mL.

As for `CC[C@H]1OC(=O)[C@H](C)[C@@H](O[C@H]2C[C@@](C)(OC)[C@@H](O)[C@H](C)O2)[C@H](C)[C@@H](O[C@@H]2O[C@H](C)C[C@H](N(C)C)[C@H]2O)[C@](C)(O)C[C@@H](C)[C@H](N(C)C2CCCCC2)[C@H](C)[C@@H](O)[C@]1(C)O` [Compound 71, 9-Deoxo-9-[(N-cyclohexyl-N-methyl)amino]erythromycin], the MIC is 16 µg/mL (≈ 19.3 µM) in test [1]; > 128 µg/mL in test [2]; > 128 µg/mL in test [3]; > 128 µg/mL in [4]; 8 µg/mL (≈ 9.63 µM) in test [5]; 1 µg/mL (≈ 1.2 µM) in test [6]. The MIC in test [7] is 0.125 µg/mL (≈ 0.15 µM); in test [11], 8 µg/mL (≈ 9.63 µM); in test [8], 128 µg/mL (≈ 154 µM); in the test on Escherichia coli EC14 (setting [15]), > 128 µg/mL; in [10] (setting [16]), > 128 µg/mL.

As for “Endo- and Exo-9-Deoxo-9-[(bicyclo[2.2.1]hept-2-en-5-yl-methyl)amino]erythromycin [Compound 19]”, the “minimal inhibitory concentration (MIC)” value in test [1] (Table IV, agar dilution) is 2 µg/mL; in test [2] (Table IV), “-- (-- = >128)”; in test [3] (Table IV) it was “-- (-- = >128)”; in [12], “-- (-- = >128)”; in test [13] (Table IV, agar dilution), 2 µg/mL; in [5] (Table IV, agar dilution), 1 µg/mL. The “minimal inhibitory concentration (MIC)” value was determined as 0.25 µg/mL in test [6] (Table IV, agar dilution); 0.015 µg/mL in test [7] (Table IV, agar dilution); 1 µg/mL in test [11] (Table IV, agar dilution); 8 µg/mL in test [8] (Table IV, agar dilution); 8 µg/mL in test [9] (Table IV, ampicillin-sensitive strain); 8 µg/mL in [14] (Table IV). Besides, the “minimal inhibitory concentration (MIC)” value with Escherichia coli EC14 (Table IV, agar dilution) was 64 µg/mL; in [10] (Table IV, agar dilution), “-- (-- = >128)”. Further, the “Oral ED50” value was > 50 mg/kg with Staphylococcus aureus, 25.0 mg/kg in the test with Streptococcus pneumoniae and 16.6 mg/kg in the test on Streptococcus pyogenes.

As for `CC[C@H]1OC(=O)[C@H](C)[C@@H](O[C@H]2C[C@@](C)(OC)[C@@H](O)[C@H](C)O2)[C@H](C)[C@@H](O[C@@H]2O[C@H](C)C[C@H](N(C)C)[C@H]2O)[C@](C)(O)C[C@@H](C)[C@H](N(C)C)[C@H](C)[C@@H](O)[C@]1(C)O` [Compound 69, 9-Deoxo-9-(dimethylamino)erythromycin], the MIC in test [4] was > 128 µg/mL; in test [5] it was 2 µg/mL (≈ 2.62 µM); in test [6], 0.25 µg/mL (≈ 0.328 µM); in test [11], 0.5 µg/mL (≈ 0.655 µM); in [9], 2 µg/mL (≈ 2.62 µM); in the test with Escherichia coli EC14 (EC14, read-out: minimal inhibitory concentration (MIC)) it was 128 µg/mL (≈ 168 µM). Further, the MIC in test [10] (setting [16]) is > 128 µg/mL.

Regarding `CC[C@H]1OC(=O)[C@H](C)[C@@H](O[C@H]2C[C@@](C)(OC)[C@@H](O)[C@H](C)O2)[C@H](C)[C@@H](O[C@@H]2O[C@H](C)C[C@H](N(C)C)[C@H]2O)[C@](C)(O)C[C@@H](C)[C@H]2[C@H](C)[C@@H](OCN2C(C)CCCN(C)C)[C@]1(C)O` (stereo partly shown) [Compound 63, 9-Deoxo-9-[(5-dimethylamino-2-pentyl)amino]-9,11-(N,O)-cyclic-Methylene Adduct of Erythromycin], the MIC in test [1] is 8 µg/mL (≈ 9.3 µM); in test [2], > 128 µg/mL; in [3] it was > 128 µg/mL; in test [4], > 128 µg/mL; in test [13] (Staphylococcus aureus, S13E, read-out: minimal inhibitory concentration (MIC)) it was 8 µg/mL (≈ 9.3 µM); in test [5], 8 µg/mL (≈ 9.3 µM). For the same molecule, the MIC in test [6] worked out at 0.5 µg/mL (≈ 0.581 µM); in [7] it was 0.5 µg/mL (≈ 0.581 µM); in test [11], 2 µg/mL (≈ 2.33 µM); in test [8] (Table V, agar dilution), 32 µg/mL (≈ 37.2 µM); in test [9] (Table V, ampicillin-sensitive strain), 8 µg/mL (≈ 9.3 µM); in test [14] (Haemophilus influenzae, 76, Table V, read-out: minimal inhibitory concentration (MIC)), 8 µg/mL (≈ 9.3 µM). For the same molecule, the MIC with Escherichia coli EC14 (setting [15]) stood at 32 µg/mL (≈ 37.2 µM); in test [10] (X68, read-out: minimal inhibitory concentration (MIC)), 128 µg/mL (≈ 149 µM).

For the molecule `CC[C@H]1OC(=O)[C@H](C)[C@@H](O[C@H]2C[C@@](C)(OC)[C@@H](O)[C@H](C)O2)[C@H](C)[C@@H](O[C@@H]2O[C@H](C)C[C@H](N(C)C)[C@H]2O)[C@](C)(O)C[C@@H](C)[C@H](N(C)C(C)C)[C@H](C)[C@@H](O)[C@]1(C)O` [Compound 70, 9-Deoxo-9-[(N-methyl-N-isopropyl)amino]erythromycin], the MIC in test [1] was 8 µg/mL (≈ 10.1 µM); in test [2], > 128 µg/mL; in [3] it was > 128 µg/mL; in [4], > 128 µg/mL; in test [5] it was 8 µg/mL (≈ 10.1 µM); in test [6], 0.5 µg/mL (≈ 0.632 µM). The MIC is 0.5 µg/mL (≈ 0.632 µM) in test [7], 2 µg/mL (≈ 2.53 µM) in test [11], > 128 µg/mL in the test on Escherichia coli EC14 (setting [15]) and > 128 µg/mL in [10] (setting [16]).

Take `CC[C@H]1OC(=O)[C@H](C)[C@@H](O[C@H]2C[C@@](C)(OC)[C@@H](O)[C@H](C)O2)[C@H](C)[C@@H](O[C@@H]2O[C@H](C)C[C@H](N(C)C)[C@H]2O)[C@](C)(O)C[C@@H](C)[C@H]2[C@H](C)[C@@H](OCN2C2CCCC2)[C@]1(C)O` [Compound 60, 9-Deoxo-9-(cyclopentylamino)-9,11(N,O)-cyclic Methylene Adduct of Erythromycin]: the MIC is 1 µg/mL (≈ 1.23 µM) in [1]; > 128 µg/mL in [2]; > 128 µg/mL in test [3]; > 128 µg/mL in [4]; 1 µg/mL (≈ 1.23 µM) in [5]; 0.125 µg/mL (≈ 0.153 µM) in test [6]. Besides, the MIC was found to be 0.06 µg/mL (≈ 0.0736 µM) in test [7], 0.5 µg/mL (≈ 0.613 µM) in [11] and 8 µg/mL (≈ 9.81 µM) in test [8].
